Test results reported in patent publication US20230067929A1, “HETEROCYCLIC DERIVATIVES, PHARMACEUTICAL COMPOSITIONS AND THEIR USE IN THE TREATMENT, AMELIORATION OR PREVENTION OF CANCER” (Tolremo Therapeutics AG, priority 2018, published 2023).

system: A375 cells; assay: A375 cell immunofluorescence assay (with 1 μM S1152 and 0.5 μM S1008), EC50; format: cell-based; settings: 1 μM S1152 + 0.5 μM S1008, one day, ratio FL2/FL3 staining (sc-365823 antibody)
Method: One thousand four hundred A375 cells were seeded in each well of a 384 well microplate. One day later they were treated with 1 μM S1152 (Selleckchem) in dimethyl sulfoxide, 0.5 μM S1008 (Selleckchem) and dose ranges of invention compounds for one day in Dulbecco's Modified Eagle's Medium supplemented with 10% fetal calf serum and 2 mM (2S)-2-amino-4-carbamoylbutanoic acid. Wells were incubated with 4% polyoxymethylene (Sigma Aldrich 158127) at ambient temperature. After ten minutes, polyoxymethylene was replaced with phosphate-buffered saline. After one minute phosphate-buffered saline was replaced with 0.2% polyethylene glycol octylphenyl ether in phosphate-buffered saline. After ten minutes at ambient temperature 0.2% polyethylene glycol octylphenyl ether in phosphate-buffered saline was replaced with 1% aminoethanoic acid in phosphate-buffered saline. […] After one hour at 37° C., the solution was replaced with phosphate-buffered saline twice. Phosphate-buffered saline was replaced with 2 μg/ml A-11029 (Invitrogen) in 0.05% polyoxyethylene (20) sorbitan monolaurate in phosphate-buffered saline. […] After one hour at ambient temperature in the dark, signal in wells was measured with a Acumen Cellista. 3,8-Diamino-5-[3-(diethylmethylammonio)propyl]-6-phenylphenanthridinium diiodide-positive objects were defined in FL3 (565-600 nm) with a perimeter between 50-800 μm and a total intensity of 10000-1000000 FLU. Signal in FL2 (500-530 nm) was measured in defined objects. A normalized ratio of total ln FL2 over total ln FL3 staining was log transformed. A non-linear regression (variable slope, 4 parameters) was used to calculate EC50 values using GraphPad Prism (Version 7.0d).

Row | Structure (SMILES) | EC50 [µM]
1 | CC(=O)N1C[C@@H](c2nc(Nc3cccc(F)c3)cc(-c3cncc(O)c3)n2)CC[C@H]1C | > 10
2 | CC(=O)N1CCCC(c2nc(Nc3cccc(F)c3)cc(-c3cccnc3)n2)C1 (centres unmarked) | < 1
3 | CC(=O)N1CCCC(c2nc(Nc3cccc(C)c3)cc(-c3cncnc3)n2)C1 (centres unmarked) | 1 to 10
4 | CC(=O)N1C[C@H](c2nc(Nc3cccc(F)c3)cc(-c3cccnc3)n2)CC[C@@H]1C(F)(F)F | < 1
5 | CCC(=O)N1CCCC(c2nc(Nc3cccc(F)c3)cc(NC3CCCCC3)n2)C1 (centres unmarked) | > 10
6 | CC(=O)N1CCCC(c2nc(Nc3cccc(F)c3)cc(-c3cncc(C(F)F)c3)n2)C1 (centres unmarked) | < 1
7 | CCC(=O)N1CCCC(c2nc(Nc3cccc(F)c3)cc(-c3cccc(OC(F)F)c3)n2)C1 (centres unmarked) | > 10
8 | CC(=O)N1CCCC(c2nc(Nc3cccc(F)c3)cc(-c3cnccc3C)n2)C1 (centres unmarked) | 1 to 10
9 | CC(=O)N1CCCC(c2cc(-c3cccnc3)cc(Nc3cccc(F)c3)n2)C1 (centres unmarked) | 1 to 10
10 | CCC(=O)N1CCCC(c2nc(Nc3cccc(F)c3)cc(-c3cccc(C#N)c3)n2)C1 (centres unmarked) | 1 to 10
11 | CCC(=O)N1CCCC(c2nc(Nc3cccc(C)c3)cc(-c3cccnc3)n2)C1 (centres unmarked) | 1 to 10
12 | CCC(=O)N1CCCC(c2nc(Nc3cccc(F)c3)cc(Nc3cnccn3)n2)C1 (centres unmarked) | > 10
13 | CC(=O)N1CC(c2nc(Nc3cccc(F)c3)cc(-c3cccnc3)n2)Cc2ccccc21 (centres unmarked) | > 10
14 | CC(=O)N1C[C@H](c2nc(Nc3cccc(F)c3)cc(-c3cccnc3)n2)CC[C@@H]1C | < 1
15 | CC(=O)N1CCN(c2cncc(-c3cc(Nc4cccc(F)c4)nc(C4CCCN(C(C)=O)C4)n3)c2)CC1 (centres unmarked) | 1 to 10
16 | CCC(=O)N1CCCC(c2nc(Nc3ccc(Cl)cc3)cc(-c3cccnc3)n2)C1 (centres unmarked) | 1 to 10
17 | COc1ccc(-c2cc(Nc3cccc(F)c3)nc(C3CCCN(C(C)=O)C3)n2)cc1 (centres unmarked) | 1 to 10
18 | CCC(=O)N1CCCC(c2nc(Nc3ncccn3)cc(-c3cccnc3)n2)C1 (centres unmarked) | > 10
19 | CC(=O)N1CCCC(c2nc(Nc3ccccc3)cc(-c3cccnc3)n2)C1 (centres unmarked) | 1 to 10
20 | CCC(=O)N1CCCC(c2nc(-c3cccnc3)cc(N3CCOCC3)n2)C1 (centres unmarked) | > 10
21 | CC(=O)N1CCCC(c2nc(Nc3cccc(F)c3)cc(-c3ccc(N4CCS(=O)(=O)CC4)nc3)n2)C1 (centres unmarked) | > 10
22 | CC(=O)N1CCCC(c2nc(Nc3cncnc3)cc(Nc3cccc(F)c3)n2)C1 (centres unmarked) | 1 to 10

Row | Structure (SMILES) | EC50 [µM]
23 | CC(=O)N1CCCC(c2nc(Nc3cccc(C)c3)cc(-c3cncc(C)c3)n2)C1 (centres unmarked) | < 1
24 | CC(=O)N1C[C@H](c2nc(Nc3ccccc3)cc(-c3cncnc3)n2)CC[C@@H]1C | < 1
25 | O=C(CC(F)(F)F)N1CCCC(c2nc(Nc3cccc(F)c3)cc(-c3cccnc3)n2)C1 (centres unmarked) | > 10
26 | CN1CC(c2nc(Nc3cccc(F)c3)cc(-c3cccnc3)n2)CC1=O (centres unmarked) | > 10
27 | CCC(=O)N1CCC(c2nc(Nc3cccc(F)c3)cc(-c3cccnc3)n2)C1 (centres unmarked) | > 10
28 | CCC(=O)N1CCCC(c2nc(Nc3cccc(F)c3)cc(-c3cccnc3)n2)C1 (centres unmarked) | 1 to 10
29 | CC(=O)N1CCCC(c2nc(Nc3ccccc3)cc(-c3cncnc3)n2)C1 (centres unmarked) | 1 to 10
30 | CCC(=O)N1CCCC(c2nc(Nc3cccc(F)c3)cc(-c3sc(CC)nc3C)n2)C1 (centres unmarked) | > 10
31 | CC(=O)N1CCCC(c2nc(Nc3cccc(F)c3)cc(-c3ncco3)n2)C1 (centres unmarked) | > 10
32 | CC(=O)N1CCC(C)C(c2nc(Nc3cccc(F)c3)cc(-c3cccnc3)n2)C1 (centres unmarked) [drawing 719] | 1 to 10
33 | CC(=O)N1C[C@H](c2nc(Nc3cncc(C)c3)cc(-c3cncc4[nH]ccc34)n2)CC[C@@H]1C | < 1
34 | CC(=O)N1CCCCC(c2nc(Nc3cccc(F)c3)cc(-c3cccnc3)n2)C1 (centres unmarked) | < 1
35 | CCC(=O)N1CCC[C@@H](c2nc(Nc3cccc(F)c3)cc(-c3cccnc3)n2)C1 | 1 to 10
36 | CCCN1CCCC(c2nc(Nc3cccc(F)c3)cc(-c3cccnc3)n2)C1 (centres unmarked) | > 10
37 | CC(F)(F)C(=O)N1CCCC(c2nc(Nc3cccc(F)c3)cc(-c3cccnc3)n2)C1 (centres unmarked) | > 10
38 | CCC(=O)N1CCCC(c2nc(Nc3cccc(F)c3)cc(-c3cccc(-c4nnc(C)o4)c3)n2)C1 (centres unmarked) | 1 to 10
39 | COc1csc(-c2cc(Nc3cccc(C)c3)nc(C3CCCN(C(C)=O)C3)n2)c1 (centres unmarked) | < 1
40 | CCC(=O)N1CCCC(c2nc(Nc3cccc(F)c3)cc(-c3cncc4[nH]ccc34)n2)C1 (centres unmarked) | > 10
41 | CC(=O)N1CCCC(c2nc(Nc3ccncc3)cc(Nc3cccc(F)c3)n2)C1 (centres unmarked) | > 10
42 | CC(=O)N1CC(c2cc(Nc3cccc(F)c3)cc(-c3cccnc3)n2)=CCC1C (centres unmarked) | 1 to 10
43 | CCC(=O)N1CCCC(c2nc(Nc3cccc(F)c3)cc(-c3cnc(NC)nc3)n2)C1 (centres unmarked) | > 10
44 | CCC(=O)N1CCCC(c2nc(Nc3cccc(F)c3)cc(-c3cncc(F)c3)n2)C1 (centres unmarked) | > 10

Row | Structure (SMILES) | EC50 [µM]
45 | CC(=O)N1CCCC(c2nc(Nc3ccc4c(c3)CCC4)cc(-c3cccnc3)n2)C1 (centres unmarked) | > 10
46 | CC(=O)N1C[C@H](c2nc(Nc3cccc(C)c3)cc(-c3cccnc3)n2)CC[C@@H]1C(F)(F)F | < 1
47 | CCC(=O)N1CCCC(c2nc(Nc3cccc(F)c3)cc(-c3ccccc3OC(F)(F)F)n2)C1 (centres unmarked) | > 10
48 | CC(=O)N1CCCC(c2nc(Nc3cccc(F)c3)cc(-c3cncc(N4CCN(C)CC4)c3)n2)C1 (centres unmarked) | > 10
49 | CCC(=O)N1CCCC(c2nc(Nc3cccc(F)c3)cc(-c3csc4cnccc34)n2)C1 (centres unmarked) | 1 to 10
50 | COc1cncc(-c2cc(Nc3cccc(Cl)c3)nc([C@H]3CCCN(C(C)=O)C3)n2)c1 | 1 to 10
51 | CCC(=O)N1CCCC(c2nc(Nc3cccc(F)c3)cc(-c3ccsc3)n2)C1 (centres unmarked) | > 10
52 | CC(=O)N1CCCC(c2nc(Nc3cncc(C)c3)cc(-c3cncc4[nH]ccc34)n2)C1 (centres unmarked) | 1 to 10
53 | CC(=O)N1CCCC(c2nc(Nc3cccc(F)c3)cc(-c3ccc(N4CCOCC4)nc3)n2)C1 (centres unmarked) | 1 to 10
54 | CC(=O)N1CCCC(c2nc(Nc3cccnc3)cc(-c3cncc4[nH]ccc34)n2)C1 (centres unmarked) | > 10
55 | CC(=O)N1CCCC(c2nc(Nc3cccc(F)c3)cc(-c3cc(Cl)cs3)n2)C1 (centres unmarked) | 1 to 10
56 | CC(=O)N1CCCC(c2nc(Nc3cncc(C)n3)cc(-c3cccnc3)n2)C1 (centres unmarked) | 1 to 10
57 | CCC(=O)N1CCCC(c2nc(Nc3cccc(F)c3)cc(-c3cncc(C)c3)n2)C1 (centres unmarked) | 1 to 10
58 | CC(=O)N1CC(c2nc(Nc3cccc(F)c3)cc(-c3cccnc3)n2)CC(C)C1C (centres unmarked) | < 1
59 | CC(=O)N1CCCC(c2nc(NC34CC(C3)C4)cc(-c3cccnc3)n2)C1 (centres unmarked) | > 10
60 | CC(=O)N1CC2(c3nc(Nc4cccc(F)c4)cc(-c4cccnc4)n3)CCC1CC2 | > 10
61 | CC(=O)Nc1ccc(-c2cc(Nc3cccc(F)c3)nc(C3CCCN(C(C)=O)C3)n2)cn1 (centres unmarked) | 1 to 10
62 | COc1cncc(-c2cc(Nc3ccc(Cl)cc3)nc(C3CCCN(C(C)=O)C3)n2)c1 (centres unmarked) | 1 to 10
63 | CCC(=O)N1CCCC(c2nc(Nc3cccc(F)c3)cc(-c3ccc(C(=O)NC)nc3)n2)C1 (centres unmarked) | > 10
64 | CCC(=O)N1CCCC(c2nc(Nc3cccc(F)c3)cc(-c3ccccc3NC(C)=O)n2)C1 (centres unmarked) | > 10
65 | CC(=O)Nc1cncc(-c2cc(Nc3cccc(F)c3)nc(C3CCCN(C(C)=O)C3)n2)c1 (centres unmarked) | < 1
66 | CC(=O)N1CCCC(c2nc(Nc3cccnc3)cc(-c3cncnc3)n2)C1 (centres unmarked) | > 10

Row | Structure (SMILES) | EC50 [µM]
67 | COc1cncc(-c2cc(Nc3cccc(Cl)c3)nc(C3CCCN(C(C)=O)C3)n2)c1 (centres unmarked) | < 1
68 | CC(=O)N1C[C@H](c2nc(Nc3cccc(F)c3)cc(-c3cncc(O)c3)n2)CC[C@@H]1C | < 1
69 | COc1ccc(Nc2cc(-c3cncc(OC)c3)nc(C3CCCN(C(C)=O)C3)n2)cc1 (centres unmarked) | 1 to 10
70 | CCC(=O)N1CCCC(c2nc(Cl)cc(Oc3cccc(F)c3)n2)C1 (centres unmarked) | > 10
71 | CCC(=O)N1CCCC(c2nc(Nc3cccc(F)c3)cc(-c3cccc(N4CCOCC4)c3)n2)C1 (centres unmarked) | 1 to 10
72 | CC(=O)N1CCCC(c2nc(Nc3ccccn3)cc(-c3cncc4[nH]ccc34)n2)C1 (centres unmarked) | 1 to 10
73 | CC(=O)N1C[C@H](c2nc(Nc3ccccc3)cc(-c3cncc4[nH]ccc34)n2)CC[C@@H]1C | < 1
74 | CC(=O)N1CCCC(c2nc(Nc3cccc(F)c3)cc(-c3ccncc3)n2)C1 (centres unmarked) | 1 to 10
75 | CC(=O)N1C[C@H](c2nc(Nc3cncc(C)c3)cc(Nc3ncccn3)n2)CC[C@@H]1C | < 1
76 | CS(=O)(=O)N1CCCC(c2nc(Nc3cccc(F)c3)cc(-c3cccnc3)n2)C1 (centres unmarked) | > 10
77 | CNC(=O)N1CCCC(c2nc(Nc3cccc(F)c3)cc(-c3cccnc3)n2)C1 (centres unmarked) | 1 to 10
78 | CC(=O)N1CCCC(c2nc(Nc3cccnc3)cc(Nc3cccc(F)c3)n2)C1 (centres unmarked) | 1 to 10
79 | CCC(=O)N1CCCC(c2nc(Nc3ccccc3OC)cc(-c3cccnc3)n2)C1 (centres unmarked) | > 10
80 | COc1cncc(-c2cc(Nc3cccc(F)c3)nc([C@@H]3CCCN(C(C)=O)C3)n2)c1 | < 1
81 | CC(=O)N1CCCC(c2cc(-c3cccnc3)nc(Nc3cccc(F)c3)n2)C1 (centres unmarked) | 1 to 10
82 | CC(=O)N1CCCC(c2nc(Nc3cccc(F)c3)cc(-c3cncc4nc(C)oc34)n2)C1 (centres unmarked) | < 1
83 | CCC(=O)N1CCCC(c2nc(Nc3cccc(F)c3)cc(-c3ccccc3C(=O)NC)n2)C1 (centres unmarked) | > 10
84 | CCC(=O)N1CCCC(c2nc(Nc3cccc(F)c3)cc(-c3ccc(OC)cc3)n2)C1 (centres unmarked) | 1 to 10
85 | CCC(=O)N1CCCC(c2nc(Nc3cccc(F)c3)cc(-c3cncc(C(=O)NC)c3)n2)C1 (centres unmarked) | 1 to 10
86 | CCC(=O)N1CCCC(c2nc(Nc3cccc(F)c3)cc(-c3ccc(C(=O)NC)cc3)n2)C1 (centres unmarked) | 1 to 10
